Assay results taken from patent US6451852B2, “Phenylacetonitrilealkylaminoalkyl-ortho-substituted aryl compounds as immunosuppressives” (G. D. Searle & Co., priority 1989, dated 2002).
Where a name gives a salt, the structure may show the parent alone.

Key:
[1] = system: excised aortic segment (Ca++ induced vascular smooth muscle contraction); test: Assay F: Calcium Antagonist Effects; settings: K+ (100 mM) depolarized aortic segment, 1 hr incubation with test compound at 10^-6M
Description: Assay F: Calcium Antagonist Effects
An excised aortic segment was mounted in a tissue bath containing modified Krebs solution. After depolarization of the tissue with K^+ (100 mM), Ca^++, in cumulative concentrations of 10^−3M, 3.2×10^−3M and 10^−2M, was injected into the bath to produce vascular smooth muscle contraction. The developed tension (g) was measured and control dose-response values are obtained. After 1 hr incubation with a test compound at 10^−6M concentration, the same doses of Ca^++ are repeated. The log dose-response curves of control and after treatment were analyzed by linear regression.

[2] = system: human peripheral blood mononuclear cells (PMNC) cocultured with mitomycin-C inactivated Raji stimulator cell line; test: Assay C: One-Way Mixed Lymphocyte Reaction (Human); format: cell-based; settings: one-way MLR, human PMNC vs Raji, 120 hours, 3H-thymidine
Description: Assay C: One-Way Mixed Lymphocyte Reaction (Human)
The mixed lymphocyte reaction (MLR) is an assay that measures T-cell blast cell transformation and mitosis which occurs when lymphocytes from different major and minor histocompatibility complex (MHC) haplotypes are cocultured. This response is considered a “one-way MLR” when stimulator cells are made unresponsive by inhibition of DNA synthesis (treatment with mitomycin-C or gamma-irradiation) prior to coculture with responder cells. This assay can be used as an indicator of the cellular immunomodulation mechanisms involved in transplant rejection. In this assay, human peripheral blood mononuclear cells(PMNC) were used as the responder cell population and were isolated from normal donor blood as follows: Blood samples were collected in LeucoPREP™ tubes (Becton Dickinson, Lincoln Park, N.J.) and the mononuclear cell preparation was obtained by following the manufacturers procedures. Isolated mononuclear cells were co-incubated at 6×10^4 cells/well with a stimulator cell line at 2×10^4 cells/well in RPMI 1640 medium containing 5% fetal bovine serum and 2-mercaptoethanol (40 μM). The stimulator cell line, Raji, which was derived from a human Burkitt lymphoma (American Type Culture Collection, Rockville Md.) was previously inactivated by mitomycin-C treatment (Sigma, St. Louis Mo., 25 μg/ml, 370 for 30 minutes). After repeated washings of mitomycin-C from the stimulator cell line, cocultures were incubated in 96 well microtiter plates at 37° C., in 95% air/5% CO2 atmosphere for 120 hours in the presence or absence of test compounds (0.1-25 μM). Inhibition of proliferation was measured by reduced incorporation of ^3H-thymidine (0.5 μCi/well, added during the last 24 hours of the assay). The IC50 values for the immunosuppressant compounds were calculated by four parameter logistic regression analysis of the results [Delean et al, Id.]

[3] = system: ConA-stimulated spleen cells from female Balb/c mice; test: Assay A: Suppression of Mitogen-Stimulated Proliferation (Murine); format: cell-based, mouse; settings: inhibition of ConA-stimulated proliferation of murine spleen cells, 5 days, MTT
Description: Assay A: Suppression of Mitogen-Stimulated Proliferation (Murine)
It is known that lymphocyte activation can be polyclonally stimulated by plant lectins and other mitogens that induce blast transformation and mitosis. Certain mitogens like Concanavalin A (ConA), preferentially activate T-lymphocytes. Exposure to ConA results in polyclonal activation of T-cells and can be used as an in vitro index for general immunomodulation of pan T-cell activity. In this assay spleen cells harvested from female Balb/c mice were incubated at 37° C., in 95% air/5% CO2 atmosphere in 96 well microtiter plates (10^5 cells/well) for 5 days with Iscove's modified Dulbecco's medium [25 mM HEPES 2 mM L-glutamine, 5% fetal bovine serum and 2-mercaptoethanol (40 μM)] (100 μl/well), concanavalin A (ConA) alone (Sigma, St. Louis, Mo.; 1.0 μg/ml) or ConA in the presence of test compounds (0.001-25 μM). Inhibition of ConA-stimulated proliferation was measured by calorimetric indicator of growth and proliferation, MTT (3-(4,5-dimethylthiazol-2-yl)-2 diphenyl tetrazolium bromide; (100 μl/well, 1 mg/ml) Sigma) [Mosmann, T., J. of Immunological Methods, 65, 55-63, […]]. After four hours, plates were centrifuged (1200 rpm) media supernatants aspirated and dye loaded cells were solubilized in isopropanol (150 μl/well). The absorbance was measured on an ELISA plate reader with a test wavelength of 570 nm and a reference of 630 nm. The IC50 values for active immunosuppressant compounds were calculated by four parameter logistic regression analysis of the results [Delean et al, Am. J. Physiol., 2, 397 (1978)].

[4] = system: PHA stimulated human donor peripheral blood mononuclear cells (PMNC); test: Assay B: Suppression of Human Mitogen Stimulation; format: cell-based; settings: inhibition of PHA stimulated proliferation of human PMNC, 96 hrs, 3H-thymidine
Description: Assay B: Suppression of Human Mitogen Stimulation Assay
Normal human donor peripheral blood mononuclear cells (PMNC) were isolated by density centrifugation using Ficoll-Paque(Pharacia LKB, Uppsala Sweden, 350 RCF 45 minutes). Cells were washed and incubated at 37° C. in 95%air/5% CO2 atmosphere in 96 well microtiter plates (2×10^5 cells/well) for 96hrs with RPMI 1640 medium containing 5% fetal bovine serum and 2-mercaptoethanol ([…]), Phytohemagglutinin (Difco, Detroit, MI 10 μg/ml) in the presence or absence of test compounds. Inhibition of PHA stimulated proliferation was measured by reduced incorporation of ^3H-thymidine (0.5 μCi/well, added during the last 24 hours of the assay). When possible, the IC50 values for active immunosuppressant compounds were calculated by four parameter logistic regression analysis of the results [Delean et al, DE ].

[5] = system: anesthetized spontaneously hypertensive rat; test: Assay H: Blood Pressure Reducing Effects; format: in vivo; settings: intragastrically at 10^-3M, readings 1, 2, 3 and 4 hours after administration
Description: Assay H: Blood Pressure Reducing Effects
Systemic blood pressure effects were assessed in vivo in an anesthetized spontaneously hypertensive rat. The test compound was administered intragastrically at 10^−[…]. Initial mean arterial blood pressure (MAP) was measured directly via a previously implanted arterial catheter immediately before administration of the compound. Blood pressure readings were made 1, 2, 3, and 4 hours after administration of the test compound.

[6] = system: Human mononuclear cells; test: Assay D: Calcium Flux Assay (human mononuclear cells); format: cell-based; settings: at 2×, 5× and 10× the IC50 values of Assay A
Description: Assay D: Calcium Flux Assay
One of the earliest requirements of lymphocyte activation involves the rapid mobilization of intracellular calcium and the sustained influx of extracellular calcium. These cellular responses to lymphocyte activators can be measured by calcium-binding fluorescent dyes such as Indo-1 [P. S. Rabinovitch, et al J. Immunol, 137, 952 (1986)]. The rapid and sustained changes in intracellular calcium can be used to discriminate classes of immunomodulatory compounds which alter early events in lymphocyte activation. Human mononuclear cells or the human Jurkat T-cell line (ATCC, Rockville Md.) were loaded with the calcium-sensitive dye, Indo-1 (5 μM), washed and incubated for 2-5 minutes in the presence or absence of test compounds. Calcium flux was initiated in lymphocytes by the binding of crosslinked antibody to the T cell receptor(αCD3 at 250 ng/ml followed by goat-anti-mouse IgG) or the lectin Phytohemagglutinin (PHA, 100 ug/ml). Jurkat cell activation was initiated by the addition of purified antibody to the T cell receptor (αCD3, 250 ng/ml). Subsequent changes in the concentration if intracellular calcium was monitored over time (6 min) by flow cytometry (Epics 753, Coulter Electronics, Hialeah Fla.) to determine modulation of the initial calcium-mediated activation of the cells [P. S. Rabinovitch, et al, E]. […]

[7] = system: adult male SHR; test: Assay G: Calcium Channel Blocker Effects (vascular resistance, microspheres); format: in vivo, rat; settings: I.V. bolus of 1.0 mg/kg, Control (DMSO) 240
Description: Assay G: Calcium Channel Blocker Effects
Under ether anesthesia, the jugular vein, femoral artery and left ventricle of adult male SHR were cannulated. After a 3-5 hour recovery period, animals ere treated with either test compound or placebo. Ten minutes was allowed for steady state conditions to be reached. Arterial pressure was then monitored via the femoral cannula. Immediately after this measurement, the reference blood sample was taken and radioactively-labeled microspheres were injected into the left ventricle. Rats were then sacrificed; organs were removed, weighed and counted. Cardiac output was computed. Percent cardiac output distribution per gram tissue, flow per gram tissue, and resistance times gram tissue were calculated fro the following organs: brain, heart, kidneys, splanchnic organs (liver plus pancreas, spleen and G. I. tract), skeletal muscle and skill. The tested compound was administered as an I.V. bolus of 1.0 mg/kg. Differences in mean values between treatment and control groups were analyzed by a one-way one variable analysis and least significant difference test.

| IC50 [2] [µM] | SMILES | IC50 ([3]; Mus musculus, 120 h) [µM] | IC50 ([4]; Homo sapiens, PBMC) [µM] | also measured |
| --- | --- | --- | --- | --- |
|  | COC(=O)c1cc(OC)c(OC)cc1CCN(C)CCCC(C#N)(c1ccc(OC)c(OC)c1)C(C)C (stereo not shown) [Example 1, methyl 2-[2-[[4-cyano-4-(3,4-dimethoxyphenyl)-5-methylhexyl]methylamino]ethyl]-4,5-dimethoxybenzoate] |  |  | pA2 [1]: 6.81 |
| 4.3 | COC(=O)c1cc(OC)c(OC)cc1CCN(C)CCCC(C#N)(c1ccc(OC)c(OC)c1)C(C)C (stereo not shown) [Example 2, methyl 2-[2-[[4-cyano-4-(3,4-dimethoxyphenyl)-5-methylhexyl]methylamino]ethyl]-4,5-dimethoxybenzoate, 2-hydroxy-1,2,3-propanetricarboxylic acid salt] | 7.1 | 5.4 |  |
|  | COC(=O)c1cc(OC)c(OC)cc1CCN(C)CCCC(C#N)(c1ccc(OC)c(OC)c1)C(C)C (stereo not shown) [Example 3, methyl 2-[2-[[4-cyano-4-(3,4-dimethoxyphenyl)-5-methylhexyl]methylamino]ethyl]-4,5-dimethoxybenzoate, 2,3-dihydroxybutanedioic acid salt] |  |  | IC50 [3]: 8.7 µM; IC50 [4]: 5.3 µM |
| 8.9 | COc1ccc(C(C#N)(CCCN(C)CCc2cc(OC)c(OC)cc2C(=O)NC(C)(C)C)C(C)C)cc1OC (stereo not shown) [Example 4, 2-[2-[[4-cyano-4-(3,4-dimethoxyphenyl)-5-methylhexyl]methylamino]ethyl]-N-(1,1-dimethylethyl)-4,5-dimethoxybenzamide, 2-hydroxy-1,2,3-propanetricarboxylic acid salt] | 13.3 | 9.9 | pA2 [1]: 6.56; Decrease in MAP [5]: 18 mm Hg |
| 20.2 | CCNC(=O)c1cc(OC)c(OC)cc1CCN(C)CCCC(C#N)(c1ccc(OC)c(OC)c1)C(C)C (stereo not shown) [Example 5, 2-[2-[[4-cyano-4-(3,4-dimethoxyphenyl)-5-methylhexyl]methylamino]ethyl]-N-ethyl-4,5-dimethoxybenzamide, 2,3-dihydroxybutanedioic acid salt] | > 25 | > 25 | inhibition of calcium flux [6]: inhibited calcium flux in a dose dependent manner; Decrease in MAP [5]: 20 mm Hg |
|  | COc1ccc(C(C#N)(CCCN(C)CCc2cc(OC)c(OC)cc2C)C(C)C)cc1OC (stereo not drawn) [Example 6, α-[3-[[2-(4,5-dimethoxy-2-methylphenyl)ethyl]methylamino]propyl]-3,4-dimethoxy-α-(1-methylethyl)benzeneacetonitrile, 2,3-dihydroxybutanedioic acid salt] |  |  | vascular resistance in the brain [7]: 149 mm Hg min. g/ml |
| 15.5 | COc1ccc(C(C#N)(CCCN(C)CCc2cc(OC)c(OC)cc2/C=C/C(C)=O)C(C)C)cc1OC (stereo not drawn) [Example 7, α-[3-[[2-[4.5-dimethoxy-2-(3-oxo-1E-butenyl)phenyl]ethyl]methylamino]-propyl]-3,4-dimethoxy-α-(1-methylethyl)benzeneacetonitrile] | 7.9 |  |  |
